Experimental data from patent US20140271930A1, “NONINVASIVE METHOD FOR MEASURING METABOLITES FOR SKIN HEALTH” (priority 2013, published 2014).
Marks after values point to notes of the source that are not given here. Peptide text beside a SMILES is read from it.

Tested on: scalp of dandruff and non-dandruff subjects
Experiment: Metabolite expression profiling (LC/MS/MS, GC/MS/MS) of scalp D-Squame tape strip extracts: non-dandruff, dandruff baseline, dandruff after 3 weeks anti-dandruff shampoo
Type: in vivo, human
Conditions: for reduction / decrease of metabolite level vs dandruff baseline: after three weeks ZPT shampoo; for decrease of metabolite level vs dandruff baseline: after three weeks selenium sulfide shampoo; for Fold Change Wk 3 Sel vs Dandruff Baseline / Fold Change Wk 3 ZPT vs Dandruff Baseline / Fold Change Wk 3 ZPT vs Non-Dan Baseline / Fold Change Wk 3 Sel vs Non-Dan Baseline: metabolite level in scalp tape strips; for Fold Change Wk 3 Sel vs Dandruff Baseline / Fold Change Wk 3 ZPT vs Dandruff Baseline: standardized to soluble protein; for Fold Change Wk 3 Sel vs Dandruff Baseline: dandruff subjects after 3 weeks 1% selenium sulfide shampoo vs own baseline; for Fold Change Wk 3 ZPT vs Dandruff Baseline: dandruff subjects after 3 weeks 1% zinc pyrithione shampoo vs own baseline; for Fold Change Wk 3 ZPT vs Non-Dan Baseline: dandruff subjects after 3 weeks 1% ZPT shampoo vs non-dandruff subjects; for Fold Change Wk 3 Sel vs Non-Dan Baseline: dandruff subjects after 3 weeks 1% selenium sulfide shampoo vs non-dandruff subjects
Text: In an embodiment, the use of an adhesive device can be used to achieve such sampling. In preparation for such a sampling study for a dandruff sampling, at a baseline visit, a qualified screening grader will complete adherent scalp flaking score (ASFS) grading for each subject and the highest flaking octant will be identified for tape strip sampling. The highest flaking octant will be sampled at baseline and at various time points during and after treatment with product. Tape strips samples will be collected from each subject at each time point (e.g., baseline and week 3).
The tape strip sampling procedure is repeated additional times, as needed, at the same site placing each D-Squame® tape disc on top of the prior sampled area. The D-Squame® tapes after sample collection are placed into the appropriately labeled wells in a labeled plate.
Following the sampling, an extraction and quantitation procedure is conducted. In an embodiment of the present invention, quantitation of small molecules from extracts of D-Squame® Tape Samples can be conducted via analysis by either LC/MS/MS or GC/MS/MS. In this embodiment of the present invention, the sample extraction in preparation for Metabolite expression profiling technology was performed.
The D-Squame® tape sample plates are removed from −80° C. freezer where they are stored following sample collection, and placed on dry ice. The tape strips are inserted into pre-labeled polypropylene collection tubes, adhesive side facing inward. Extraction buffer containing methanol and water is added to each collection tube and then extracted on ice using sonication for 15 min. If necessary, additional tapes are placed in the collection tube containing the extract solution and the extraction process is repeated as a means of concentrating the sample. Each extract solution is isolated from the tape strip and an aliquot of each sample is placed into a pre-labeled polypropylene collection tubes and frozen at −80° C. for metabolite expression profiling analysis. A separate aliquot is specified for soluble protein analysis using a BCA™ Protein Assay Kit. For this analysis, the aliquot consisting of methanol and water is taken to dryness under a gentle stream of nitrogen. The sample is resuspended in an appropriate aqueous buffer (e.g., PBS/SDS (1× PBS+0.2% SDS) and analyzed for soluble protein.
The extracts are analyzed by GC/MS/MS and LC/MS/MS in positive and negative ion mode. Chromatographic separation followed by full scan mass spectra and MS/MS spectra is carried out to record and quantify all detectable ions present in the samples. Metabolites with known chemical structure can be identified by matching the ions' chromatographic retention index and mass spectra fragmentation signatures with reference library entries created from authentic standard metabolites under the identical analytical procedure as the experimental samples. Welch's Two Sample t-tests and matched-pair t-tests are used to analyze the data. […] The statistical analyses are performed on natural log-transformed data to reduce the effect of any potential outliers in the data. Welch's Two Sample t-test comparisons are made between the means of each biochemical from the various groups listed at the top of the tables and are calculated using either or both of the statistical analysis software programs: Array Studio (Omicsoft, Inc) or “R” from the Free Software Foundation, Inc.
Subjects are evaluated by a qualified grader to establish their scalp status. Dandruff subjects are identified by their level of visible flaking as assessed by a qualified grader. Non-dandruff healthy scalp subjects are evaluated at baseline to establish normalized levels of each biomarker. In this study, there are 60 non-dandruff subjects that are evaluated at baseline. […] They are evaluated at baseline, and after 3 weeks of product usage.

[1] = dandruff subjects after 3 weeks treatment with Sel shampoo, metabolite level in scalp tape strip extract
[2] = dandruff subjects after 3 weeks treatment with ZPT shampoo, metabolite level in scalp tape strip extract
[3] = relative metabolite level in scalp tape strips, dandruff subjects after 3 weeks 1% ZPT shampoo
[4] = relative metabolite level in scalp tape strips, dandruff subjects after 3 weeks 1% selenium sulfide shampoo

Row | Compound | Mean Values WEEK 3 TRT Sel [1] | Mean Values WEEK 3 TRT ZPT [2] | reduction / decrease of metabolite level vs dandruff baseline [%] | decrease of metabolite level vs dandruff baseline [%] | Fold Change Wk 3 Sel vs Dandruff Baseline | Fold Change Wk 3 Sel vs Dandruff Baseline (listed as 13-HODE+9-HODE) [fold] | Fold Change Wk 3 ZPT vs Dandruff Baseline | Fold Change Wk 3 ZPT vs Dandruff Baseline (listed as 13-HODE+9-HODE) [fold] | Fold Change Wk 3 ZPT vs Non-Dan Baseline | Fold Change Wk 3 Sel vs Non-Dan Baseline | Mean Values WEEK 3 TRT ZPT [3] | Mean Values WEEK 3 TRT Sel [4]
1 | CCCCCCCCCCCCCCCCC(=O)OCC(O)CO (stereo not drawn) | 0.638 | 1.1274 | – | – | – | – | – | – | – | – | – | –
2 | 13- and 9-hydroxyoctadecadienoic acid [13-HODE + 9-HODE] | 0.4182 | 0.4413 | 74 | 66 | 0.34* fold | 0.34 | 0.26*** fold | 0.26 | 0.5*** fold | 0.48* fold | – | –
3 | CCCCCCCCCCCCCCC(O)C(=O)O (stereo not drawn) [2-hydroxypalmitate] | 0.6696 | 0.8231 | – | – | 0.57* fold | – | 1.04 fold | – | 0.6* fold | 0.49* fold | – | –
4 | O=C(O)C(O)Cc1ccc(O)cc1 (stereo not drawn) [3-(4-hydroxyphenyl)lactate] | 0.7878 | 0.7551 | – | – | 0.44* fold | – | 0.7*** fold | – | 0.8 fold | 0.84 fold | – | –
5 | CC(C)CCC[C@@H](C)[C@H]1CC[C@H]2[C@@H]3[C@H](O)C=C4C[C@@H](O)CC[C@]4(C)[C@H]3CC[C@]12C [7-alpha-hydroxycholesterol] | 0.9662 | 0.959 | – | – | – | – | – | – | – | – | – | –
6 | CCCCCCC=CCCCCCCCCC(=O)O [10-heptadecenoate (17:1n7), 10-heptadecenoate] | 0.4139 | 0.7411 | – | – | 0.33* fold | – | 0.67*** fold | – | 0.52*** fold | 0.29* fold | – | –
7 | CCCCCCCCC=CCCCCCCCCC(=O)O [10-nonadecenoate (19:1n9), 10-nonadecenoate] | 0.1901 | 0.4088 | – | – | 0.14* fold | – | 0.31* fold | – | 0.38* fold | 0.17* fold | – | –
8 | CC(C)CCCCCCCCCCCCCC(=O)O [15-methylpalmitate] | 0.3813 | 0.485 | – | – | 0.31* fold | – | 0.4* fold | – | 0.35* fold | 0.27* fold | – | –
9 | CC(C)CCCCCCCCCCCCCCCC(=O)O [17-methylstearate] | 0.273 | 0.4446 | – | – | 0.21* fold | – | 0.36* fold | – | 0.35* fold | 0.22* fold | – | –
10 | OC[C@@H](O)C(O)[C@H](O)CO [Arabitol] | – | – | – | – | 0.73 fold | – | 0.61* fold | – | 0.65 fold | 1.07 fold | – | –
11 | O=C(O)c1ccccc1 [Benzoate] | – | – | – | – | 7.26**** fold | – | 2.02**** fold | – | 2.16**** fold | 4.26**** fold | – | –
12 | NCCO [Ethanolamine] | 1.7285 | 0.976 | – | – | 1.63**** fold | – | 1.08 fold | – | 2.53**** fold | 4.49** fold | – | –
13 | O=C(O)/C=C/C(=O)O [Fumarate] | – | – | – | – | 0.37*** fold | – | 0.53 fold | – | 0.68 fold | 0.76 fold | – | –
14 | NCCCC(=O)O [Gamma-aminobutyrate (GABA), Gamma-aminobutyrate] | – | – | – | – | – | – | – | – | – | – | 0.1343 | 0.1888
15 | N[C@@H](CCC(=O)N[C@@H](CCC(=O)O)C(=O)O)C(=O)O [Gamma-glutamylglutamate] | – | – | – | – | 0.95 fold | – | 1.89** fold | – | 2.09** fold | 1.11 fold | 1.7984 | 0.9586
16 | N[C@@H](CCC(=O)O)C(=O)O [Glutamate] | – | – | – | – | – | – | – | – | – | – | 0.7627 | 1.0169
17 | NCC(=O)O [Glycine] | – | – | – | – | – | – | – | – | – | – | 0.7968 | 0.8645
18 | CC(C)CCC[C@@H](C)[C@H]1CC[C@H]2C3=CC[C@H]4C[C@@H](O)CC[C@]4(C)[C@H]3CC[C@]12C [Lathosterol] | 0.9469 | 0.7479 | – | – | – | – | – | – | – | – | – | –
19 | CC(C)C[C@H](N)C(=O)N[C@@H](CCC(=O)O)C(=O)O [Leucylglutamate] (H-Leu-Glu-OH) | 0.9581 | 0.874 | – | – | 0.81* fold | – | 1.13 fold | – | 0.93 fold | 1.02 fold | – | –
20 | CCCC/C=C\CCCCCCCC(=O)O [Myristoleate (14:1n5), Myristoleate] | 0.6261 | 0.8341 | – | – | 0.53*** fold | – | 0.8*** fold | – | 0.6* fold | 0.45* fold | – | –
21 | Cn1cc(C(N)=O)ccc1=O [N1-Methyl-2-pyridone-5-carboxamide] | 0.8271 | 1.1768 | – | – | 0.89 fold | – | 1.57 fold | – | 0.76 fold | 0.54* fold | – | –
22 | CCCCCC/C=C\CCCCCCCC(=O)O [Palmitoleate (16:1n7), Palmitoleate] | 0.6347 | 0.8507 | – | – | 0.55* fold | – | 0.83* fold | – | 0.58* fold | 0.43* fold | – | –
23 | CCCCCCCCCCCCCCCCCC(=O)NCCO [Stearoyl ethanolamide] | 2.6645 | 2.3466 | – | – | 5.03** fold | – | 2.94 fold | – | 3.88** fold | 4.41** fold | – | –
24 | NC(N)=O [Urea] | 2.5539 | 2.6469 | – | – | 2.81**** fold | – | 4.13 fold | – | 3.75 fold | 3.62** fold | – | –
25 | O=c1[nH]c(=O)c2[nH]cnc2[nH]1 [Xanthine] | – | – | 84 | 85 | – | – | – | – | – | – | – | –
